Patent publication US8835617B2, “Polynucleotides encoding a human TRIM-Cyp fusion polypeptide, compositions thereof, and methods of using same” (priority 2008, dated 2014)
Entries after “also recorded” stand apart in the source; their conditions may differ.

What was measured:
[1] = test system: SIVAGMtan; experiment: SIVAGMtan GFP vector challenge of CRFK cells expressing T5 proteins; format: cell-based; settings: in words
Excerpt: (§1) Most HIV-1 plasmids and vectors have been described previously (Berthoux et al., 2004). pNL4-3 contains a complete infectious HIV-1 provirus. pNL4-3-R5 bears the V3 loop of the CCR5-tropic 92TH014-2 HIV-1 strain (Papkalla et al., 2002). To generate pNL4-3-GFP-IRES-Nef, enhanced green fluorescent protein (eGFP) and the ECMV (encephalomyocarditis virus) IRES (internal ribosome entry site) were inserted upstream of nef pNLΔenvGFP is pNL4-3 with an env-inactivating mutation and eGFP in place of nef. […] For biochemistry, hT5Cyps were cloned into the p3xFLAG-CMV-7.1 expression vector (Sigma) and HIV-1 CA was expressed as a GST-fusion using the EF1α promoter.
(§2) 2×10^4 adherent cells/well or 8×10^4 suspension cells/well were plated in 48-well plates (Nunc) for challenge with single-cycle GFP reporter vectors that were titered as indicated. GFP synthesis was assessed by flow cytometry 48 hrs post-infection. […] For infection of 10^6 primary CD4^+ T cells or macrophages, 15 ng p24/10^6 cells of a CXCR4- or CCR5-tropic HIV-1NL4-3 stock was used, and infection was monitored by assessing the accumulation of RT activity in the supernatant (Sayah et al., 2004). FACSCalibur, Cellquest Pro (Becton Dickinson), and FlowJo software (Treestar, Inc.) were used to record and analyze fluorescence. […]

[2] = test system: HIV-1-G89V; experiment: HIV-1-G89V CA mutant vector challenge of CRFK cells; format: cell-based
Excerpt: (§3) Most HIV-1 plasmids and vectors have been described previously (Berthoux et al., 2004). pNL4-3 contains a complete infectious HIV-1 provirus. pNL4-3-R5 bears the V3 loop of the CCR5-tropic 92TH014-2 HIV-1 strain (Papkalla et al., 2002). To generate pNL4-3-GFP-IRES-Nef, enhanced green fluorescent protein (eGFP) and the ECMV (encephalomyocarditis virus) IRES (internal ribosome entry site) were inserted upstream of nef pNLΔenvGFP is pNL4-3 with an env-inactivating mutation and eGFP in place of nef. CSGW is an HIV-1 vector expressing eGFP under the control of the spleen focus forming virus (SFFV) promoter. pFUPI, was engineered from pFUW (Lois et al., 2002) and uses the ubiquitin promoter to drive expression of a puromycin resistance cassette followed by ECMV IRES-T5. pAIG uses the SFFV promoter to drive expression of T5 followed by IRES-eGFP. In pscALPS, the SFFV promoter drives expression of T5 and the human CypA promoter drives expression of eGFP. For three-component vector production, HIV-1 gag and pol were expressed using either psPAX2, p8.9NΔSB, p8.9NΔSB-G89V, or p8.9NΔSB-V86P/H87Q/I91V/M96I. p8.9NΔSB-V86P/H87Q/I91V/M96I is p8.9NΔSB with the V86P/H87Q/I91V/M96I mutation (Chatterji et al., 2005) introduced in CA. […] For biochemistry, hT5Cyps were cloned into the p3xFLAG-CMV-7.1 expression vector (Sigma) and HIV-1 CA was expressed as a GST-fusion using the EF1α promoter.

[3] = test system: SIVMAC251; experiment: SIVMAC251 GFP vector challenge of CRFK cells expressing T5 proteins; format: cell-based; settings: in words
Excerpt: as §1, §2

[4] = test system: HIV-1NL4-3-IRES-GFP-Nef; experiment: Single-cycle cell-to-cell spreading assay, 293T donors and Jurkat targets; format: cell-based; settings: protein expressed in 293T donor cells, 2 hours co-culture
Excerpt: The mechanism underlying these observations has not yet been determined. […] This would implicate T5-mediated restriction both at post-entry and at a much later step in the viral life cycle (Sakuma et al., 2007; Zhang et al., 2008a). […] To assess the effects of donor and target cell T5Cyp on cell-to-cell spread of HIV-1, a single-cycle cell-to-cell spreading assay for HIV-1 infection was designed. 293T donor cell lines expressing control or indicated T5Cyp were transfected with HIV-1NL4-3-IRES-GFP-Nef provirus and supernatant was harvest during the first 48 hours to measure production of virus by RT activity. […] At the indicated time points dextran sulfate was added to the co-culture to block further infection and cells were harvested. 48 hours later the percentage of infected target Jurkat T cells was measured by flow cytometry (FIG. 53A). The magnitude of HIV-1 restriction in single cycle assays using cell-free virus is shown for recipient Jurkat T cell lines and donor 293 T cell lines is shown (FIG. 53B).

[5] = test system: HIV-2ROD; experiment: HIV-2ROD GFP vector challenge of CRFK cells expressing T5 proteins; format: cell-based; settings: in words
Excerpt: as §1, §2

[6] = test system: HIV-1NL4-3-GFP-IRES-Nef; experiment: Spreading infection after electroporation of proviral DNA into Jurkat T cell lines; format: cell-based
Excerpt: Studies were designed to see whether a similar system could be exploited in order to select for a T5Cyp-resistant virus. One approach was to introduce HIV-1NL4-3-GFP-IRES-Nef proviral DNA into Jurkat T cell lines expressing T5 or control by electroporation, to ensure that spreading infection was initiated by cell associated virus in the absence of free virus. […] Again no T5Cyp-resistant HIV-1 could be derived in this experimental setting.

[7] = test system: V86P/H87Q/I91V/M96I HIV-1; experiment: V86P/H87Q/I91V/M96I HIV-1 CA variant vector challenge; format: cell-based
Excerpt: as §3

[8] = test system: HIV-1NL4-3-GFP-IRES-Nef; experiment: Spreading infection of Jurkat T cells with replication-competent HIV-1; format: cell-based; settings: for HIV-1 replication in spreading infection: in words, Jurkat, up to two months; for isolation of resistant HIV-1: wide range of inocula
Method: Jurkat T cells stably transduced with T5-expression vectors were infected with replication-competent HIV-1NL4-3-GFP-IRES-Nef.
(§4) 2×10^4 adherent cells/well or 8×10^4 suspension cells/well were plated in 48-well plates (Nunc) for challenge with single-cycle GFP reporter vectors that were titered as indicated. GFP synthesis was assessed by flow cytometry 48 hrs post-infection. For spreading infection, 10^6 Jurkat cells were infected with 1 to 15 ng p24/10^6 cells of HIV-1NL4-3-GFP-IRES-Nef. Cells were split every 3 days, fixed in 0.5% paraformaldehyde/PBS, and assayed for GFP synthesis by flow cytometry. For infection of 10^6 primary CD4^+ T cells or macrophages, 15 ng p24/10^6 cells of a CXCR4- or CCR5-tropic HIV-1NL4-3 stock was used, and infection was monitored by assessing the accumulation of RT activity in the supernatant (Sayah et al., 2004). FACSCalibur, Cellquest Pro (Becton Dickinson), and FlowJo software (Treestar, Inc.) were used to record and analyze fluorescence. 1-5×10^5 events were acquired for analysis.
as §4, with “cytometry.” for “cytometry. For infection of”, “or macrophages were infected with” for “or macrophages,”, “of CXCR4” for “of a CXCR4-”, “HIV-1NL4-3 stocks, or with low passage, primary isolates HIV-1DH12” for “HIV-1NL4-3 stock was used,”, “and HIV-1132W, (Olivier Schwartz, Pasteur Institute, Paris). Infection” for “and infection”, “supernatant (7).” for “supernatant (Sayah et al., 2004).”

[9] = test system: HIV-1
Method: CRFK, feline kidney fibroblast cells, lack endogenous T5 and are commonly used in the field as they have large T5-restriction phenotypes in single-cycle assays.
as §4
as §4, with “cytometry.” for “cytometry. For infection of”, “or macrophages were infected with” for “or macrophages,”, “of CXCR4” for “of a CXCR4-”, “HIV-1NL4-3 stocks, or with low passage, primary isolates HIV-1DH12” for “HIV-1NL4-3 stock was used,”, “and HIV-1132W, (Olivier Schwartz, Pasteur Institute, Paris). Infection” for “and infection”, “supernatant (7).” for “supernatant (Sayah et al., 2004).”

| Substance | restriction of SIVAGMtan [1] | restriction of HIV-1-G89V [2] | restriction of SIVMAC251 [3] | infection of control target cells lower than with empty vector donors [4] | restriction of HIV-2ROD [5] | course of infection after electroporation of provirus [6] | block of V86P/H87Q/I91V/M96I HIV-1 [7] | HIV-1 replication in spreading infection [8] | isolation of resistant HIV-1 [8] | potency relative to hT5αR323-332 and hT5αR332P ([9]; CRFK cells) | restriction of HIV-1 relative to rhT5α ([9]; CRFK cells) | block of HIV-1 infection relative to hT5Cyp ([9]; CRFK cells, low multiplicities of infection) | HIV-1 restriction activity ([9]; in words, CRFK cells) | inhibition of HIV-1 ([9]; single-cycle infection of CRFK cells) |
| --- | --- | --- | --- | --- | --- | --- | --- | --- | --- | --- | --- | --- | --- | --- |
| hT5Cyp: human TRIM5α fused at serine 322 to human cyclophilin A, SEQ ID NO:12 | significantly better than AoT5Cyp at low MOI | failed to restrict HIV-1-G89V | neither AoT5Cyp nor hT5Cyp can restrict this virus | 10 fold | blocked comparably | the infection was self-limiting | blocked infection by viruses bearing this sequence as efficiently as they block standard HIV-1 clones | No HIV-1 replication was detected; also recorded: significantly greater anti-HIV-1 activity than a chimeric human/rhesus monkey TRIM5α; also recorded: HIV-1 replication was not detected; also recorded: superior anti-HIV-1 activity | could not be isolated | ~10 fold | ~10 fold |  |  |  |
| AoT5Cyp: Aotus (owl monkey) TRIM5-cyclophilin A fusion protein [reference compound] | restricted all four lentiviruses | failed to restrict HIV-1-G89V | neither AoT5Cyp nor hT5Cyp can restrict this virus | 3 fold | blocked comparably | the infection was self-limiting | blocked infection by viruses bearing this sequence as efficiently as they block standard HIV-1 clones | No HIV-1 replication was detected; also recorded: HIV-1 replication was not detected | could not be isolated |  |  | about 10 fold | restricted all four lentiviruses | ~1000 fold |
